{"source": "patent US6994841B1", "about": "“Relating to magnetic resonance imaging” (Kucharczyk and Moseley Partners, priority 1990, dated 2006)", "key": {"[1]": {"tested_on": "cat brain after right middle cerebral artery (MCA) occlusion", "assay": "DyDTPA-BMA-enhanced T2-weighted spin-echo MRI of cerebral perfusion deficit after MCA occlusion", "format": "in vivo", "settings": "for signal difference between ischemic and contralateral control tissue: mean ± S.E.M.", "procedure": "Young adult cats weighing 2.0 to 4.5 kg were anaesthetized with 30 mg/kg i.v. Nembutal. Polyethylene catheters were placed in the femoral artery and vein for blood pressure monitoring and drug administration. The right middle cerebral artery (MCA) was isolated via the transorbital approach and occluded just proximal to the origin of the lateral striate arteries with bipolar electrocautery followed by complete surgical transection. The dural incision and orbit were covered with saline moistened gauze and absorbable gelatin sponge.\nA General Electric CSI (2 Tesla) unit, equipped with Acustar S-150 self-shielded gradient coils (+20 gauss/cm, 15 cm bore size) was used. MRI was performed with an 8.5 cm inner-diameter low-pass birdcage proton imaging coil. Successive multislice T2-weighted coronal images were obtained for up to 12 hours following occlusion. Spin-echo T2-weighted images (TR 2800, TE 80 and 160, 3 mm slices, 1 mm gap) were obtained with a field-of-view (FOV) of 80 mm in which two scans were averaged for each one of the 128 phase-encoding steps resulting in a total acquisition time of 12 minutes.\nIn order to evaluate the anatomic region of perfusion deficiency following MCA occlusion, cats were injected with a non-ionic T2*-shortening contrast agent, DyDTPA-BMA. The DyDTPA-BMA complex was prepared by refluxing an aqueous suspension containing stoichiometric amounts of dysprosium oxide and DTPA-BMA. The contrast agent was infused i.v. at doses of 0.25, 0.5 or 1.0 mmol/kg beginning at phase-encoding step #32 and finishing at step #60 (approximately 3 min) of T2-weighted image acquisition. DyDTPA-BMA injections were given at different time points post MCA occlusion in individual cats. After injection, the magnetic susceptibility effect was quantified for up to 60 minutes in both ischemic and normal hemispheres by comparing region-of-interest (ROI) intensity to pre-contrast T2-weighted ROI intensities. […] A signal intensity ratio was calculated as the ROI image intensity ratio of an abnormal, ischemic region over that of the normal, contralateral side. Results were expressed as the mean percentage change ±Standard Error of the Mean (X±S.E.M.)\nAt the conclusion of the MR protocol, 15 ml/kg of a 2% solution of 2,3,5-triphenyl tetrazolium chloride (TTC) was infused transcardially. The brain was removed from the cranium after 10–20 minutes, immersed in a 2% TTC solution for another 10–20 minutes, and then stored overnight in 10% buffered formalin in a light shielded container. The brain was sectioned coronally (2–3 mm slices) from 24–36 hours later and immediately examined for histologic evidence of ischemic damage as evidenced by pallor of TTC-staining."}, "mice": {"tested_on": "mice", "assay": "LD50 i.v. administration in mice", "format": "in vivo"}}}
{"smiles": "CNC(=O)CN(CCN(CCN(CC(=O)[O-])CC(=O)NC)CC(=O)[O-])CC(=O)[O-].[Dy+3]", "note": "[DyDTPA-BMA]", "values": [{"measurement": "Onset of signal hypertensity (relative to pre-contrast T2-weighted image): Earlier (number of cats)", "setting": "[1]; 0.25 mmol/kg, 5 cats tested", "value": 1}, {"measurement": "Onset of signal hypertensity (relative to pre-contrast T2-weighted image): Later (number of cats)", "setting": "[1]; 0.25 mmol/kg, 5 cats tested", "value": 0}, {"measurement": "Onset of signal hypertensity (relative to pre-contrast T2-weighted image): Same Time (number of cats)", "setting": "[1]; 0.25 mmol/kg, 5 cats tested", "value": 4}, {"measurement": "Signal intensity ratio of injured to contralateral control tissue (relative to pre-contrast T2 weighted image): Better (number of injections)", "setting": "[1]; 0.25 mmol/kg, 5 injections", "value": 4}, {"measurement": "Signal intensity ratio of injured to contralateral control tissue (relative to pre-contrast T2 weighted image): Same (number of injections)", "setting": "[1]; 0.25 mmol/kg, 5 injections", "value": 1}, {"measurement": "Signal intensity ratio of injured to contralateral control tissue (relative to pre-contrast T2 weighted image): Worse (number of injections)", "setting": "[1]; 0.25 mmol/kg, 5 injections", "value": 0}, {"measurement": "maximum signal intensity losses", "setting": "[1]; 0.5 mmol/kg i.v., gray matter of normal non-occluded cerebral hemisphere, first 15 minutes after injection", "value": 35, "unit": "%"}, {"measurement": "Onset of signal hypertensity (relative to pre-contrast T2-weighted image): Earlier (number of cats)", "setting": "[1]; 0.50 mmol/kg, 16 cats tested", "value": 12}, {"measurement": "Onset of signal hypertensity (relative to pre-contrast T2-weighted image): Later (number of cats)", "setting": "[1]; 0.50 mmol/kg, 16 cats tested", "value": 0}, {"measurement": "Onset of signal hypertensity (relative to pre-contrast T2-weighted image): Same Time (number of cats)", "setting": "[1]; 0.50 mmol/kg, 16 cats tested", "value": 4}, {"measurement": "Signal intensity ratio of injured to contralateral control tissue (relative to pre-contrast T2 weighted image): Better (number of injections)", "setting": "[1]; 0.50 mmol/kg, 23 injections", "value": 17}, {"measurement": "Signal intensity ratio of injured to contralateral control tissue (relative to pre-contrast T2 weighted image): Same (number of injections)", "setting": "[1]; 0.50 mmol/kg, 23 injections", "value": 6}, {"measurement": "Signal intensity ratio of injured to contralateral control tissue (relative to pre-contrast T2 weighted image): Worse (number of injections)", "setting": "[1]; 0.50 mmol/kg, 23 injections", "value": 0}, {"measurement": "Onset of signal hypertensity (relative to pre-contrast T2-weighted image): Earlier (number of cats)", "setting": "[1]; 1.0 mmol/kg, 6 cats tested", "value": 4}, {"measurement": "Onset of signal hypertensity (relative to pre-contrast T2-weighted image): Later (number of cats)", "setting": "[1]; 1.0 mmol/kg, 6 cats tested", "value": 0}, {"measurement": "Onset of signal hypertensity (relative to pre-contrast T2-weighted image): Same Time (number of cats)", "setting": "[1]; 1.0 mmol/kg, 6 cats tested", "value": 2}, {"measurement": "Signal intensity ratio of injured to contralateral control tissue (relative to pre-contrast T2 weighted image): Better (number of injections)", "setting": "[1]; 1.0 mmol/kg, 16 injections", "value": 14}, {"measurement": "Signal intensity ratio of injured to contralateral control tissue (relative to pre-contrast T2 weighted image): Same (number of injections)", "setting": "[1]; 1.0 mmol/kg, 16 injections", "value": 2}, {"measurement": "Signal intensity ratio of injured to contralateral control tissue (relative to pre-contrast T2 weighted image): Worse (number of injections)", "setting": "[1]; 1.0 mmol/kg, 16 injections", "value": 0}, {"measurement": "signal intensity recovery, of pre-contrast control values", "setting": "[1]; 45 minutes after administration, all cerebral tissues", "value": "at least 90%"}, {"measurement": "signal difference between ischemic and contralateral control tissue", "setting": "[1]; basal ganglia", "value": "26±8", "unit": "%"}, {"measurement": "time post-occlusion at which relative hyperintensity was found in occluded basal ganglia (as early as)", "setting": "[1]; both 1 mmol/kg and 0.5 mmol/kg dosages", "value": 30, "unit": "min"}, {"measurement": "difference in immediate post-contrast signal intensity on increasing dosage", "setting": "[1]; dosage increased from 0.5 to 1.0 mmol/kg", "value": "only a minimal difference"}, {"measurement": "signal difference between ischemic and contralateral control tissue", "setting": "[1]; gray matter in the inferior parietal gyrus", "value": "42±14", "unit": "%"}, {"measurement": "signal difference between ischemic and contralateral control tissue", "setting": "[1]; white matter in the internal capsule", "value": "5±4", "unit": "%"}, {"measurement": "LD50", "setting": "mice", "value": 34, "unit": "mmol/kg"}]}
